Patent publication US9416099B2 (priority 2010, dated 2016)

Experiments:
Staphylococcus aureas = type: cell-based
[1] = tested on: Pseudomonas aeruginosa and Staphylococcus aureas; type: cell-based
Pseudomonas aeruginosa = type: cell-based

Row | Structure (SMILES) | % Kill, Staphylococcus aureas, 400 ppm (Staphylococcus aureas) | % Kill, Staphylococcus aureas, DI water (Staphylococcus aureas) | Overall Rating [1] | % Kill, Pseudomonas aeruginosa, 400 ppm (Pseudomonas aeruginosa) | % Kill, Pseudomonas aeruginosa, DI water (Pseudomonas aeruginosa) | Adjuvant 1 h, mL separation | Anionic 1 h, mL separation | Nonionic 1 h, mL separation | Adjuvant 24 h, mL separation | Anionic 24 h, mL separation | Nonionic 24 h, mL separation
1 | C[N+](C)(C)CCCNC(=O)CCCCCCC/C=C/CCCCCCCC(=O)NCCC[N+](C)(C)C [C18-27, C18 DiDMAPA DiQuat] | 17.7% | 55.4% | good | 19.8% | 38.9% |  |  |  |  |  | 
2 | COC(=O)CCCCCCC/C=C/CCCCCCCC(=O)NCCC[N+](C)(C)CC(=O)[O-] [Mix-48, C18 Ester DMAPA Betaine] |  |  |  |  |  | 0 mL | 0 mL | 0 mL | 0 mL | 0 mL | 0.5 mL
3 | C[N+](C)(C)CCCNC(=O)CCCCCCC/C=C/CCCCCCCC(=O)NCCC[N+](C)(C)CC(=O)O [Mix-38, C18 DiDMAPA Betaine Quat] |  |  |  |  |  | 0.5 mL |  | 0 mL | 0.5 mL |  | 0 mL
4 | C[N+](C)([O-])CCCNC(=O)CCCCCCC/C=C/CCCCCCCC(=O)NCCC[N+](C)(C)CC(=O)[O-] [Mix-37, C18 DiDMAPA Betaine AO] |  |  |  |  |  |  | 0 mL | 0 mL | 0.5 mL |  | 0 mL
5 | CCCCCC/C=C/CCCCCCCC(=O)NCCC[N+](C)(C)CC(=O)[O-] [C16-13, C16 DMAPA Betaine] |  |  |  |  |  |  | 0 mL |  |  | 0.25 mL | 
6 | C[N+](C)(C)CCCNC(=O)CCCCCCC/C=C/CCCCCCCC(=O)NCCC[N+](C)(C)[O-] [Mix-35, C18 DiDMAPA Quat AO] | 20.9% | 55.6% | good | 22.1% | 31.4% | 0 mL | 0 mL | 5 mL | 0 mL | 0 mL | 1 mL
7 | C=CCCCCCCCC(=O)NCCC[N+](C)(C)C [C10-18, C10 DMAPA Quat] | 71.8% | 75.9% | good | 28.9% | 29.6% |  |  |  |  |  | 
8 | C=CCCCCCCCC(=O)NCCC[N+](C)(C)CC(=O)[O-] [C10-22, C10 DMAPA Betaine] |  |  |  |  |  | 0 mL | 0 mL |  | 0 mL | 0 mL | 0.5 mL
9 | C[N+](C)(CCCNC(=O)CCCCCCC/C=C/CCCCCCCC(=O)NCCC[N+](C)(C)CC(O)CS(=O)(=O)[O-])CC(O)CS(=O)(=O)[O-] (stereo not shown) [Mix-31, C18 DiSulfobetaine] |  |  |  |  |  | 0 mL | 0 mL | 0 mL | 0 mL | 0 mL | 
10 | C[N+](C)(C)CCCNC(=O)CCCCCCC/C=C/CCCCCCCC(=O)NCCC[N+](C)(C)[O-] [C18-35, C18 DiDMAPA Quat AO] | 35.7% | 55.1% | good | 34.4% | 29.3% |  |  |  |  |  | 
11 | C[N+](C)(CCCNC(=O)CCCCCCCC=CCCCCCCCC(=O)NCCC[N+](C)(C)CC(=O)[O-])CC(=O)[O-] (mixture of isomers) [Mix-32, C18 DiBetaine] |  |  |  |  |  | 0 mL | 0 mL | 0 mL | 0 mL | 0 mL | 
12 | CN(C)CCCNC(=O)CCCCCCC/C=C/CCCCCCCC(=O)NCCC[N+](C)(C)C [Mix-34, C18 DiDMAPA MonoQuat] | 28.6% | 57.5% | good | 24.1% | 47.5% |  |  |  |  |  | 
13 | C[N+](C)(C)CCCNC(=O)CCCCCCC/C=C/CCCCCCCC(=O)NCCC[N+](C)(C)CC(=O)O [C18-38, C18 DiDMAPA Betaine Quat] | 30.3% | 57.4% | good | 18.8% | 42.2% |  |  |  |  |  | 
14 | CCCCCC/C=C/CCCCCCCC[N+](C)(C)Cc1ccccc1 [C16-17, C16 Amine Benzyl Quat] | 42.5% | 48.1% | superior | 39.4% | 42.6% |  |  |  |  |  | 
15 | C=CCCCCCCCC(=O)NCCC[N+](C)(C)CC(O)CS(=O)(=O)[O-] (stereo not shown) [C10-24, C10 DMAPA Sulfobetaine] |  |  |  |  |  | 0 mL | 0 mL | 0.5 mL | 0 mL | 0 mL | 0.5 mL
16 | CN(C)CCCNC(=O)CCCCCCC/C=C/CCCCCCCC(=O)NCCC[N+](C)(C)CC(=O)[O-] [Mix-36, C18 DiDMAPA MonoBetaine] |  |  |  |  |  |  | 0 mL | 0 mL |  | 0 mL | 0 mL
17 | C=CCCCCCCCC[N+](C)(C)C [C10-42, C10 Amine DMS Quat] |  |  |  |  |  | 0 mL | 0 mL |  | 0 mL | 0 mL | 
18 | CC/C=C/CCCCCCCC(=O)NCCC[N+](C)(C)C [C12-18] | 66.3% | 42.4% | good | 40.5% | 58.7% |  |  |  |  |  | 
19 | CC/C=C/CCCCCCCC(=O)NCCC[N+](C)(C)CC(O)CS(=O)(=O)[O-] (stereo not shown) [C12-24, C12 DMAPA Sulfobetaine] |  |  |  |  |  | 0 mL | 0 mL | 0.25 mL | 0 mL | 0 mL | 1 mL
20 | C[N+](C)(CCCNC(=O)CCCCCCC/C=C/CCCCCCCC(=O)NCCC[N+](C)(C)Cc1ccccc1)Cc1ccccc1.[Cl-].[Cl-] [Mix-65, C18 DiDMAPA Benzyl Quat] | 22.1% | 55.3% | good | 26.1% | 30.5% |  |  |  |  |  | 
21 | CN(C)CCCNC(=O)CCCCCCC/C=C/CCCCCCCC(=O)NCCC[N+](C)(C)CC(=O)[O-] [C18-36, C18 DiDMAPA MonoBetaine] |  |  |  |  |  | 0 mL | 0 mL | 0 mL | 0 mL | 0 mL | 
22 | C[N+](C)(CCCNC(=O)CCCCCCC/C=C/CCCCCCCC(=O)NCCC[N+](C)(C)Cc1ccccc1)Cc1ccccc1.[Cl-].[Cl-] [C18-65, C18 DiDMAPA Benzyl Quat] | 20.6% | 55.6% | good | 24.7% | 30.4% |  |  |  |  |  | 
23 | CC/C=C/CCCCCCCC(=O)NCCC[N+](C)(C)CC(=O)[O-] [C12-22, C12 DMAPA Betaine] |  |  |  |  |  | 0 mL | 0 mL | 0 mL | 0 mL | 0 mL | 
24 | C=CCCCCCCCC(=O)NCCC[N+](C)(C)Cc1ccccc1.[Cl-] [C10-31, C10 DMAPA Benzyl Quat] | 65.5% | 79.7% | superior | 47.4% | 47.5% |  |  |  |  |  | 
25 | C[N+](C)([O-])CCCNC(=O)CCCCCCC/C=C/CCCCCCCC(=O)NCCC[N+](C)(C)CC(=O)[O-] [C18-37, C18 DiDMAPA Betaine AO] |  |  |  |  |  | 0 mL | 0 mL | 0 mL | 0 mL | 0 mL | 
